Test results published in article PMC9238271, “The quorum sensing peptide EntF* promotes colorectal cancer metastasis in mice: a new factor in the host-microbiome interaction” (BMC Biology, 2022).
Entries after “also recorded” stand apart in the source; their conditions may differ.

Assays:
[1] = test system: luciferase-transfected HCT-8/E11 cells injected into the cecal wall; assay: Orthotopic mouse model of colorectal cancer: weekly bioluminescent imaging; format: in vivo, female athymic nude mice (Swiss nu/nu)
Procedure: All in vivo experiments were performed according to the Ethical Committee principles of laboratory animal welfare, approved by our institute (Ghent University, Faculty of Medicine and Health Sciences, approval number ECD 17-90). Mice were maintained in a sterile environment under controlled conditions (light–dark cycle with light from 7:00 h to 17:00 h, temperature 21–25 °C and humidity 45–65%). Before the experiment, mice were allowed to acclimate to the abovementioned conditions for a minimum of 7 days.
Six-week-old female athymic nude mice (Swiss nu/nu) were anesthetized, and a minimally invasive midline laparotomy was performed to localize the cecum. The cecum was then gently pulled out, and luciferase-transfected HCT-8/E11 cells (1 × 10^6 cells) in 20 μL serum-free DMEM medium with Matrigel (1:1) were injected into the cecal wall. Before implantation, cells were treated with EntF* (10^2 nM), Phr0662 (10^2 nM), vehicle (PBS), or TGFα positive control (0.1 μg mL^−1) solutions for 5 days. The cecum was then carefully placed back into the abdominal cavity and the surgical incision was closed with two layers of sutures with PDS 6-0. […] Once a week, mice were examined for tumor growth and metastases using bioluminescent imaging with the IVIS Lumina II (Perkin Elmer, Belgium) after i.p. injection with 200 μL luciferin (150 mg kg^−1). After 6 weeks, mice were euthanized using cervical dislocation, and the liver, diaphragm, lungs, cecum, duodenum, and peritoneum were macroscopically examined for the presence of tumor nodules. Liver and lung tissues were then fixed in formalin for 24 h and stored in 70% ethanol for maximum 3 days before embedding in paraffin. Next, a hematoxylin and eosin (H&E) staining was performed on 8 μm sections, and 3 sections per mouse were visualized using microscopy. Slides from tumor-bearing mice were analyzed by two blinded, independent investigators using the scoring system described in Additional file 5: Table S3. In case of differences, slides were scored by a third blinded, independent investigator for consensus.
The Kolmogorov-Smirnov test was used to assess if data obtained were normally distributed. For sample size n < 10, non-parametric tests (Mann-Whitney U test) were performed directly. Slope comparison was based on linear regression analysis. Bootstrapped medians and Hedges G-values were used to calculate the effect size when sample sizes were different between the groups.

[2] = test system: E-cadherin expression in HCT-8 cells; assay: Western blot of E-cadherin expression, HCT-8 cells (EntF*, alanine and D-amino acid analogs); format: cell-based
Procedure: HCT-8, HT-29, and HT-116 cells were grown in DMEM medium supplied with 10% fetal bovine serum (FBS) and 1% penicillin-streptomycin. Caco-2 cells were grown in DMEM medium supplied with 10% FBS, 1% non-essential amino acid NEAA), and 1% penicillin-streptomycin. Cells were cultured at 37 °C and 5% CO2. As cells reached confluency, they were detached using 0.25% Trypsin-EDTA.
For Western blot analyses, HCT-8 (n = 15), HCT-116 (n = 12), Caco-2 (n = 6), and HT-29 (n = 12) cells were seeded in 6-well plates at a density of 1 × 10^6 cells/well. Twenty-four hours after seeding, all cell lines were treated with 1 μM EntF* or a placebo solution. HCT-8 cells were also tested for responsiveness to 1 μM EntF* synthetic alanine-derived analogs. For antagonist activity analysis, HCT-8 cells were treated with 1 μM Nef-M1 or 1 μM EntF*A1 alone or in combination with 500 nM EntF*. After 24 h, cells were detached from the surface and lysed in RIPA buffer (Thermo Scientific). Protein concentration was determined using the modified Lowry protein assay kit (Thermo Scientific), according to the manufacturer’s instructions. Protein samples were diluted to the same concentration (4 μg/μL) with water and diluted again 1:1 using 2x Laemmli buffer. After that, samples were boiled for 5 min at 95 °C to denature proteins and centrifuged for 5 min at 16,000g; supernatants were used for Western blot analyses. Equal amounts of total protein (20 μg/lane) were separated by SDS-PAGE on an Any kD^TM gel (Bio-Rad ) and then transferred to a PVDF membrane. Before incubation with antibodies, non-specific binding sites on the membranes were blocked using 5% skimmed milk solution (1 h). TBS buffer with 0.05% Tween 20 was used for all washing steps. Membranes were incubated overnight at 4 °C with an anti-E-cadherin primary antibody (1/1000 dilution). An HRP-conjugated anti-rabbit antibody (1/2000 dilution, 1 h incubation) was used for chemiluminescent detection. Membranes were incubated with the detection substrate for 5 min and signal detection was performed using the ChemiDoc EZ imager and Image Lab software (Bio-Rad). Signal intensity was normalized against the total protein content in each lanes.
A quantitative approach was used to evaluate the importance of each amino acid, where the Fisher’s LSD p-values of (1) multiple comparisons between EntF* and the alanine (ALA) scan and (2) multiple comparisons between different peptides of the ALA scan are combined. Subsequently, based on the combined P-score, the amino acids were classified in 5 classes using a hierarchical cluster analysis and confirmed using the Jenks natural breaks algorithm with K = 5. CombinedPscore=1-PPBSvsALAscan*PEntF*vsALAscan

CC(C)C[C@@H]1NC(=O)[C@H](CO)NC(=O)[C@H](Cc2ccccc2)NC(=O)[C@H](C(C)C)NC(=O)[C@@H](NC(=O)[C@H](CCC(=O)O)NC(=O)[C@@H](NC(=O)[C@H](CC(C)C)NC(=O)[C@H](CC(N)=O)NC(=O)[C@@H](N)CO)C(C)C)CSSC[C@@H](C(=O)N[C@@H](CC(N)=O)C(=O)O)NC(=O)[C@H](CCCCN)NC(=O)[C@H](CCCCN)NC(=O)[C@H](Cc2ccccc2)NC1=O (single isomer, unassigned) [EntF*]
effect size class by Hedges' G, bioluminescence ([1]; after a 6-week treatment, compared to the placebo group): medium to large effect
effect size: increase in bioluminescence compared to the placebo ([1]; after a 6-week treatment, bootstrapped median): 79%
luciferase activity / tumor growth compared to the vehicle ([1]; daily i.p. over 6 weeks, linear regression slope comparison): statistically significant increase; also recorded: significant increase in tumor growth
effect on E-cadherin levels in HCT-8 cells ([2]; 24 h, n = 15): significant decrease
Relative E-cadherin decrease ([2]; Ala-scan sheet, Blot 19 (single blot), chemiluminescence band, placebo lane = 100): 54.8007
E-cadherin expression relative to H2O control (= 100) ([2]; Ala-scan sheet, Blot 20 (single blot), chemiluminescence band, placebo lane = 100): 67.4208
Relative E-cadherin decrease ([2]; Ala-scan sheet, Blot 21 (single blot), chemiluminescence band, placebo lane = 100): 65.0177
E-cadherin expression relative to H2O control (= 100) ([2]; Ala-scan sheet, Blot 24 (single blot), chemiluminescence band, Norm. Vol. relative to placebo lane = 100): 28.5
E-cadherin expression relative to H2O control (= 100) ([2]; Ala-scan sheet, Blot 25 (single blot), chemiluminescence band, Norm. Vol. relative to placebo lane = 100): 21.0
E-cadherin expression relative to H2O control (= 100) ([2]; Ala-scan sheet, Blot 26 (single blot), chemiluminescence band, Norm. Vol. relative to placebo lane = 100): 35.9
E-cadherin expression relative to H2O control (= 100) ([2]; Ala-scan sheet, Blot 27 (single blot), chemiluminescence band, Norm. Vol. relative to placebo lane = 100): 217.9
E-cadherin expression relative to H2O control (= 100) ([2]; Ala-scan, Blot 11 (single blot replicate), normalized band volume relative to Placebo = 100.0): 93.8
E-cadherin expression relative to H2O control (= 100) ([2]; Ala-scan, Blot 12 (single blot replicate), normalized band volume relative to Placebo = 100.0): 85.9
E-cadherin expression relative to H2O control (= 100) ([2]; Ala-scan, Blot 13 (single blot replicate), normalized band volume relative to Placebo = 100.0): 94.6
E-cadherin expression relative to H2O control (= 100) ([2]; Ala-scan, Blot 14 (single blot replicate), normalized band volume relative to Placebo = 100.0): 84.9
E-cadherin expression relative to H2O control (= 100) ([2]; Ala-scan, Blot 18 (single blot replicate), normalized band volume relative to Placebo = 100.0): 74.8
E-cadherin expression relative to H2O control (= 100) ([2]; D-scan, Blot 1 (replicate), Norm. Vol. relative to H2O lane = 100.0, chemiluminescence): 92.9
E-cadherin expression relative to H2O control (= 100) ([2]; D-scan, Blot 2 (replicate), Norm. Vol. relative to H2O lane = 100.0, chemiluminescence): 90.1
E-cadherin expression relative to H2O control (= 100) ([2]; D-scan, Blot 3 (replicate), Norm. Vol. relative to H2O lane = 100.0, chemiluminescence): 85.4
E-cadherin expression relative to H2O control (= 100) ([2]; D-scan, Blot 4 (replicate), Norm. Vol. relative to H2O lane = 100.0, chemiluminescence): 88.3
E-cadherin expression relative to H2O control (= 100) ([2]; D-scan, Blot 6 (replicate), Norm. Vol. relative to H2O lane = 100.0, chemiluminescence): 95.4
E-cadherin expression relative to H2O control (= 100) ([2]; D-scan, Blot 7 (replicate), Norm. Vol. relative to H2O lane = 100.0, chemiluminescence): 92.1
E-cadherin expression relative to H2O control (= 100) ([2]; D-scan, Blot 8 (replicate), Norm. Vol. relative to H2O lane = 100.0, chemiluminescence): 99.2
E-cadherin expression relative to H2O control (= 100) ([2]; D-scan, Blot 9 (replicate), Norm. Vol. relative to H2O lane = 100.0, chemiluminescence): 67.6
E-cadherin expression relative to H2O control (= 100) ([2]; D-scan, Blot 10 (replicate), Norm. Vol. relative to H2O lane = 100.0, chemiluminescence): 83.3
E-cadherin expression relative to H2O control (= 100) ([2]; D-scan, Blot 11 (replicate), Norm. Vol. relative to H2O lane = 100.0, chemiluminescence): 74.5
E-cadherin expression relative to H2O control (= 100) ([2]; D-scan, Blot 12 (replicate), Norm. Vol. relative to H2O lane = 100.0, chemiluminescence): 74.5
E-cadherin expression relative to H2O control (= 100) ([2]; H2O = 100.0, CXCL12 at 10µg/ml, mean of the replicates (row r47, unlabelled; SEM in row below)): 85.8
E-cadherin expression relative to H2O control (= 100) ([2]; H2O = 100.0, CXCL12 at 10µg/ml, replicate 1 (row r35)): 92.9
E-cadherin expression relative to H2O control (= 100) ([2]; H2O = 100.0, CXCL12 at 10µg/ml, replicate 2 (row r36)): 90.1
E-cadherin expression relative to H2O control (= 100) ([2]; H2O = 100.0, CXCL12 at 10µg/ml, replicate 3 (row r37)): 85.4
E-cadherin expression relative to H2O control (= 100) ([2]; H2O = 100.0, CXCL12 at 10µg/ml, replicate 4 (row r38)): 88.3
Ala scan: Relative E-cadherin decrease ([2]; H2O = 100.0, mean of the replicates (row r29, unlabelled; SEM in row below)): 62.0
E-cadherin expression relative to H2O control (= 100) ([2]; H2O = 100.0, replicate 5 (row r39)): 95.4
E-cadherin expression relative to H2O control (= 100) ([2]; H2O = 100.0, replicate 6 (row r40)): 92.1
E-cadherin expression relative to H2O control (= 100) ([2]; H2O = 100.0, replicate 7 (row r41)): 99.2
E-cadherin expression relative to H2O control (= 100) ([2]; H2O = 100.0, replicate 8 (row r42)): 67.6
E-cadherin expression relative to H2O control (= 100) ([2]; H2O = 100.0, replicate 9 (row r43)): 83.3
E-cadherin expression relative to H2O control (= 100) ([2]; H2O = 100.0, replicate 10 (row r44)): 74.5
E-cadherin expression relative to H2O control (= 100) ([2]; H2O = 100.0, replicate 11 (row r45)): 74.5
Relative E-cadherin decrease in different cell lines, Average ([2]; HCT-8 cells, average (EntF* n = 15, CXCL12 n = 4)): 62.0
